# Values quoted from earlier work in PMC10017685 (Nature Communications, 2023).
# Like-named read-outs stand apart in the source and are kept apart here.
# Test system: human erythrocytes
# Design: method as in DBAASP
# Conditions: cited from earlier work
# [1] = toxicity class label 1 or 0, meaning of the labels not given, DBAASP HC50 data, human erythrocytes, ref DBAASP
Sequence,Class (dedicated toxicity dataset used for toxicity classifier evaluation),Class (dedicated toxicity dataset used for toxicity classifier evaluation) [1]
GILSKLLKKLKKIIAK [DBAASP_8909],0,–
GILSSLLKKLKKIIAK [DBAASP_8905],0,–
GILSSLLKKLKKWIAK [DBAASP_8917],0,–
GILSSLLKKWKKIIAK [DBAASP_8916],0,–
GILSSLWKKLKKIIAK [DBAASP_8913],0,–
GILSSLWKKLKKWIAK [DBAASP_8918],0,–
GILSSLWKKPKKIIAK [DBAASP_8919],–,0
GILSSWLKKLKKIIAK [DBAASP_8912],0,–
GIMISLMKKLAAHIAK [DBAASP_8898],–,0
GIMSSLMKKLAAHIAK [DBAASP_8893],–,0
GIMSSLMKKLAAHIKK [DBAASP_8896],0,–
GIMSSLMKKLAAIIAK [DBAASP_8899],–,0
GIMSSLMKKLAKHIAK [DBAASP_8895],–,0
GIMSSLMKKLAKIIAK [DBAASP_8900],–,0
GIMSSLMKKLAKIIKK [DBAASP_8903],0,–
GIMSSLMKKLKAHIAK [DBAASP_8894],–,0
GIMSSLMKKLKKHIAK [DBAASP_8897],–,0
GIMSSLMKKLKKIIAK [DBAASP_8901],0,–
GIMSSLMKKLKKIIKK [DBAASP_8904],0,–
GIWDTIKSMGKVFAGAILQNL [DBAASP_700],–,1
GIWDTIKSMGKVFAGKIKQNL [DBAASP_702],–,0
GIWDTIKSMGKVFAGLILQNL [DBAASP_701],–,1
GIWKTIKSMGKVFAGAIKQNL [DBAASP_705],–,0
GIWKTIKSMGKVFAGAILQNL [DBAASP_704],–,0
GIWKTIKSMGKVFAGKIKQNL [DBAASP_703],–,0
GIWKTIKSMGKVFAGKILQNL [DBAASP_699],–,0

Sequence,Class (dedicated toxicity dataset used for toxicity classifier evaluation),Class (dedicated toxicity dataset used for toxicity classifier evaluation) [1]
GIWSSLLKKLKKIIAK [DBAASP_8911],–,0
GKLGPLLKIAAKVGSKLL [DBAASP_11238],–,0
GKLGPLLKIAAKVGSNLL [DBAASP_11237],–,0
GKLSSLWKKLKKIIAK [DBAASP_8915],–,0
GKWKKILGKLIR [DBAASP_3277],0,–
GLASTIGSLLGKFAKGGAQAFLQPK [DBAASP_2288],–,0
GLFDIIKKIAESF [DBAASP_779],–,0
GLFDIWAWWRWRR [DBAASP_10051],–,0
GLFDIWKKLRWRR [DBAASP_10054],–,0
GLFDIWKKWRWRR [DBAASP_10053],–,0
GLFDIWKWWRWRR [DBAASP_10052],–,0
GLFDKWAWWRWRR [DBAASP_10050],–,0
GLFDVIKKLLKKIGGL [DBAASP_8593],–,1
GLFDVIKKLLKKIKGL [DBAASP_8594],–,1
GLFDVIKKVASVIGGL [DBAASP_1320],–,0
GLFDVIKKVLKKIGGL [DBAASP_8592],–,1
GLFGKILGVGKKVLCGLSGMC [DBAASP_2198],–,0
GLGSVLGKALKIGANLL [DBAASP_3821],–,0
GLKALKKVFKGIHKAIKLINKHVK [DBAASP_6932],–,0
GLKALKKVFKGIHKAIKLINKHVQ [DBAASP_6931],–,0
GLKALKKVFKGIHKAIKLINNHVQ [DBAASP_6929],–,0
GLKALKKVFQGIHEAIKLINNHVQ [DBAASP_6923],–,0
GLKALKKVFQGIHKAIKLINNHVQ [DBAASP_6928],–,0
GLKEVAHSAKKFAKGFISGLTGS [DBAASP_5713],–,0
GLKGLLGKALKGIGKHIGKAQGC [DBAASP_6808],–,0
GLKKIFKAGLGSLKKGIAAHVAS [DBAASP_4412],–,0

Sequence,Class (dedicated toxicity dataset used for toxicity classifier evaluation),Class (dedicated toxicity dataset used for toxicity classifier evaluation) [1]
GLKKIFKAGLGSLVKGIAAHVAS [DBAASP_4408],–,0
GLKKIFKAGLGSLVKGIAAHVAS [DBAASP_4416],–,1
GLKKIFKAGLGSLVKGIKAHVAS [DBAASP_4414],–,0
GLKKIFKKGLGSLVKGIAAHVAS [DBAASP_4410],–,0
GLKLLLSLGLKLL [DBAASP_13848],–,0
GLLDFFKGAGKELLTHLASQI [DBAASP_16390],–,0
GLLDLLKGAGKGLLTHLASQI [DBAASP_16389],–,0
GLLDLLKLLLKAAG [DBAASP_12756],–,0
GLLDTLKGAAKNVVGSLASKVMEKL [DBAASP_4394],–,0
GLLGKLLKIAAKVGKKLL [DBAASP_4927],–,1
GLLGKLLKIAAKVGSNLL [DBAASP_4922],–,1
GLLGLLGSVVSHVVPAIVGHF [DBAASP_2298],–,1
GLLGPLLKIAAKVGKKLL [DBAASP_4925],–,0
GLLGPLLKIAAKVGKNLL [DBAASP_4924],–,0
GLLGPLLKIAAKVGSKLL [DBAASP_4926],–,0
GLLGPLLKIAAKVGSNLL [DBAASP_3157],–,0
GLLGPLLKIAKKVGSNLL [DBAASP_4923],–,0
GLLKAIKTLL [DBAASP_3121],–,0
GLLKFIKTLL [DBAASP_3138],–,0
GLLKIIKTLL [DBAASP_3137],–,1
GLLKKIKKLL [DBAASP_7429],–,0
GLLKKIKTLL [DBAASP_3141],–,0
GLLKKIKWLL [DBAASP_7430],0,–
GLLKKLLKIAAKVGKKLL [DBAASP_4928],–,1
GLLKKLLKKLLKKL [DBAASP_13973],1,–
GLLKLIKTLL [DBAASP_3136],–,1

Sequence,Class (dedicated toxicity dataset used for toxicity classifier evaluation),Class (dedicated toxicity dataset used for toxicity classifier evaluation) [1]
GLLKPLLKIAAKVGSNLL [DBAASP_2279],–,0
GLLKRIATLL [DBAASP_3123],–,0
GLLKRIKALL [DBAASP_3124],–,0
GLLKRIKFLL [DBAASP_3145],–,0
GLLKRIKILL [DBAASP_3144],–,0
GLLKRIKKLL [DBAASP_3148],–,0
GLLKRIKKLLKKIKKLL [DBAASP_8595],–,1
GLLKRIKLLL [DBAASP_3143],–,0
GLLKRIKNLL [DBAASP_3146],–,0
GLLKRIKSLL [DBAASP_8600],–,0
GLLKRIKT [DBAASP_13874],–,0
GLLKRIKTL [DBAASP_13873],–,1
GLLKRIKTLL [DBAASP_3116],–,0
GLLKRIKTLL [DBAASP_7447],–,1
GLLKRIKVLL [DBAASP_3142],–,0
GLLKRIKWLL [DBAASP_3147],–,0
GLLKVIKTLL [DBAASP_3135],–,0
GLLKVIKVLL [DBAASP_3150],–,1
GLLKWIKTLL [DBAASP_3140],–,1
GLLRASSKWGRKYYVDLAGCAKA [DBAASP_12529],–,0
GLLRASSVWGRKYYVDLAGCAKA [DBAASP_1639],–,0
GLLSNVAGLLKQFAKGGVNAVLNPK [DBAASP_5717],–,0
GLLSRIKTLL [DBAASP_8598],–,0
GLLTRIKTLL [DBAASP_8596],–,0
